What was measured:
[1] = target: T1, C-src kinase (Homo sapiens, UniProt P12931); experiment: C-src kinase assay (poly GluTyr substrate); assay type: biochemical; details: read-out: C-src TK IC50
T1 construct: made in house; host or cells: baculovirus infected insect cells

[2] = tested on: transplanted tumors; experiment: Transplanted tumor assay; assay type: in vivo; details: F1 hybrid mice; compound generally by infusion by tail tether
Protocol: F1 hybrid mice were used in the assay. The mice receive ascites fluid or dilutions of tumor brei on Day 0. A sample of the inocula is incubated in thioglycolate media as a check for gross contamination of the tumor material. After all test animals are inoculated with tumors, they are randomized for the assay. Control animals receive vehicle, while treated animals receive an invention compound dissolved in the vehicle, generally by infusion by tail tether. All animals are monitored daily for acute toxicity and other clinical signs. Survival is checked daily for the control group and treated group. The assay generally is continued for 60 days, at which time all surviving animals are euthanized.

T1 sequence (P12931 whole entry): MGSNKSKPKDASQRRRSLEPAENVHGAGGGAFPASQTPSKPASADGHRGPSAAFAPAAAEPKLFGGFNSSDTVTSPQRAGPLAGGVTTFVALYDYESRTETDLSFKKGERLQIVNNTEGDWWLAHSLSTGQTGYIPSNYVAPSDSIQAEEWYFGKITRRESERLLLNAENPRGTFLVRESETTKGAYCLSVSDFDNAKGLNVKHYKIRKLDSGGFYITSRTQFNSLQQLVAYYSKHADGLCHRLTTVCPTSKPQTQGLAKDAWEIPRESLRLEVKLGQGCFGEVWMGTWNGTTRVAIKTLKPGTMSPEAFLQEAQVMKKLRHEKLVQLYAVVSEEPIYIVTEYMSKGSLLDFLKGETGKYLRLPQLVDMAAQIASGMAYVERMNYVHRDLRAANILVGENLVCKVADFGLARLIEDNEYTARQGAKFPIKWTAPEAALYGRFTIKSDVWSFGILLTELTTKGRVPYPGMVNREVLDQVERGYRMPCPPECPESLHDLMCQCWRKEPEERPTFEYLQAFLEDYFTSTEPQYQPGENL

`Cn1c(=O)c(-c2c(Cl)cccc2Cl)cc2cnc(Nc3ccccc3)nc21` [Example 54, 6-(2,6-Dichlorophenyl)-8-methyl-2-phenylamino-8H-pyrido[2,3-d]pyrimidin-7-one] was tested, and the IC50 [1] was 0.024 µM and the “life span of animals infected with transplanted tumors” value [2] was “increased the life span”.

Source: patent publication EP0823908B1, “PYRIDO[2,3-d]PYRIMIDINES FOR INHIBITING PROTEIN TYROSINE KINASE MEDIATED [sequence] PROLIFERATION” (Warner-Lambert Company LLC, priority 1995, dated 1996)
